System in the first assay: not listed separately
The assay is described as follows: DRUGMATRIX: Atrial Natriuretic Factor (ANF) radioligand binding (ligand: [125I] ANF (rat)). The assay is classed as cell membranes, Cavia porcellus, Dunkin-Hartley, Adrenal gland, Membrane. The following applies: Not Active = under 50% inhibition at 10 µM.
With `COc1cc2c3cc1Oc1cc(ccc1O)C[C@@H]1c4c(cc(OC)c(O)c4Oc4ccc(cc4)C[C@@H]3N(C)CC2)CC[N+]1(C)C.[Cl-]`, the IC50 result is reported as “Not Active” and the Ki entry is given as “Not Active”.

For the compound `CN(Cc1ccc(C(C)(C)C)cc1)Cc1cccc2ccccc12` [BUTENAFINE], the IC50 result is reported as “Not Active” and the Ki entry was “Not Active”.

As to `Sc1ncnc2nc[nH]c12` [MERCAPTOPURINE ANHYDROUS], the IC50 result is “Not Active” and the Ki entry was “Not Active”.

Turning to `CC(C)(C)NCC(O)c1cc(Cl)c(N)c(Cl)c1` (stereo not drawn) [CLENBUTEROL], the IC50 result is on record as “Not Active” and the Ki entry is given as “Not Active”.

For the compound `Nc1nc2c(ncn2COCCO)c(=O)[nH]1` [ACYCLOVIR], the IC50 entry was “Not Active” and the Ki result is reported as “Not Active”.

`c1ccc2c(c1)c1cccc3ccc4cccc2c4c31` [BENZO[E]PYRENE]: the IC50 entry is “Not Active” and the Ki result is “Not Active”.

Take `O=C(O)CCCc1ccc(N(CCCl)CCCl)cc1` [CHLORAMBUCIL]: the IC50 entry was “Not Active” and the Ki result is listed as “Not Active”.

For the compound `Cc1ccc(N(CC2=NCCN2)c2cccc(O)c2)cc1` [PHENTOLAMINE], the IC50 result is on record as “Not Active” and the Ki entry is “Not Active”.

For `CC(C)(Oc1ccc(Cl)cc1)C(=O)O` [CLOFIBRIC ACID], the IC50 result is given as “Not Active” and the Ki result is “Not Active”.

System in a further assay: not listed separately
Put plainly: DRUGMATRIX: Calcium Channel Type L, Benzothiazepine radioligand binding (ligand: [3H] Diltiazem). It counts as cell membranes, Rattus norvegicus, Wistar, Brain, Membrane. The following applies: Not Active = under 50% inhibition at 10 µM.
Consider `COc1cc2c3cc1Oc1cc(ccc1O)C[C@@H]1c4c(cc(OC)c(O)c4Oc4ccc(cc4)C[C@@H]3N(C)CC2)CC[N+]1(C)C.[Cl-]`, for which the IC50 entry is recorded as “Not Active” and the Ki entry is given as “Not Active”.

For `CN(Cc1ccc(C(C)(C)C)cc1)Cc1cccc2ccccc12` [BUTENAFINE], the IC50 result is “Not Active” and the Ki entry was “Not Active”.

As for `Sc1ncnc2nc[nH]c12` [MERCAPTOPURINE ANHYDROUS], the IC50 result is “Not Active” and the Ki entry is listed as “Not Active”.

`CC(C)(C)NCC(O)c1cc(Cl)c(N)c(Cl)c1` (stereo not drawn) [CLENBUTEROL]: the IC50 entry was “Not Active” and the Ki entry is recorded as “Not Active”.

On to `Nc1nc2c(ncn2COCCO)c(=O)[nH]1` [ACYCLOVIR], for which the IC50 result is “Not Active” and the Ki result is “Not Active”.

With `c1ccc2c(c1)c1cccc3ccc4cccc2c4c31` [BENZO[E]PYRENE], the IC50 entry was “Not Active” and the Ki entry is “Not Active”.

Take `O=C(O)CCCc1ccc(N(CCCl)CCCl)cc1` [CHLORAMBUCIL]: the IC50 result is recorded as “Not Active” and the Ki result is “Not Active”.

As to `Cc1ccc(N(CC2=NCCN2)c2cccc(O)c2)cc1` [PHENTOLAMINE], the IC50 entry is listed as “Not Active” and the Ki entry is “Not Active”.

On to `CC(C)(Oc1ccc(Cl)cc1)C(=O)O` [CLOFIBRIC ACID], for which the IC50 result is listed as “Not Active” and the Ki result is reported as “Not Active”.

Another assay deals with Mitogen-activated protein kinase 3 (Homo sapiens, UniProt P27361). The assay is described as follows: DRUGMATRIX: Protein Serine/Threonine Kinase, ERK1 enzyme inhibition (substrate: Myelin Basic Protein). Further details: species or system Escherichia coli. The note with it: Not Active = under 50% inhibition at 10 µM.
Sequence of Mitogen-activated protein kinase 3 (P27361 whole entry): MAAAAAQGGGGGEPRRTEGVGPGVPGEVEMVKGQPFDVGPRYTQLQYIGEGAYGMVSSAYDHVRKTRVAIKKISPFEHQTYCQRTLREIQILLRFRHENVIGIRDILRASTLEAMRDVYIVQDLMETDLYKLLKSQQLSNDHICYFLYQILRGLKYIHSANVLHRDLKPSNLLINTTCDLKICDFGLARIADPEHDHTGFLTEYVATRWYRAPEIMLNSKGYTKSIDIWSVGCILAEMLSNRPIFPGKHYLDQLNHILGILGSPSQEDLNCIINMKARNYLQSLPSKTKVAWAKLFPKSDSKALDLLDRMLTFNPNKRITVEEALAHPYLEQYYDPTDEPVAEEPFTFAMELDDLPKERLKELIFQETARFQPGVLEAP
`COc1cc2c3cc1Oc1cc(ccc1O)C[C@@H]1c4c(cc(OC)c(O)c4Oc4ccc(cc4)C[C@@H]3N(C)CC2)CC[N+]1(C)C.[Cl-]`: the IC50 entry is given as “Not Active”.

Consider `CN(Cc1ccc(C(C)(C)C)cc1)Cc1cccc2ccccc12` [BUTENAFINE], for which the IC50 entry is “Not Active”.

With `Sc1ncnc2nc[nH]c12` [MERCAPTOPURINE ANHYDROUS], the IC50 result is reported as “Not Active”.

Turning to `CC(C)(C)NCC(O)c1cc(Cl)c(N)c(Cl)c1` (stereo not drawn) [CLENBUTEROL], the IC50 result is listed as “Not Active”.

Take `Nc1nc2c(ncn2COCCO)c(=O)[nH]1` [ACYCLOVIR]: the IC50 entry is listed as “Not Active”.

For the compound `c1ccc2c(c1)c1cccc3ccc4cccc2c4c31` [BENZO[E]PYRENE], the IC50 result is “Not Active”.

Consider `O=C(O)CCCc1ccc(N(CCCl)CCCl)cc1` [CHLORAMBUCIL], for which the IC50 entry was “Not Active”.

As to `Cc1ccc(N(CC2=NCCN2)c2cccc(O)c2)cc1` [PHENTOLAMINE], the IC50 result is “Not Active”.

As to `CC(C)(Oc1ccc(Cl)cc1)C(=O)O` [CLOFIBRIC ACID], the IC50 entry is reported as “Not Active”.

Another assay concerns the target T1, Alpha-1D adrenergic receptor (Homo sapiens, UniProt P25100). Note: in other assays of this panel Not Active means under 50% inhibition at 10 µM.
T1 sequence (P25100 whole entry): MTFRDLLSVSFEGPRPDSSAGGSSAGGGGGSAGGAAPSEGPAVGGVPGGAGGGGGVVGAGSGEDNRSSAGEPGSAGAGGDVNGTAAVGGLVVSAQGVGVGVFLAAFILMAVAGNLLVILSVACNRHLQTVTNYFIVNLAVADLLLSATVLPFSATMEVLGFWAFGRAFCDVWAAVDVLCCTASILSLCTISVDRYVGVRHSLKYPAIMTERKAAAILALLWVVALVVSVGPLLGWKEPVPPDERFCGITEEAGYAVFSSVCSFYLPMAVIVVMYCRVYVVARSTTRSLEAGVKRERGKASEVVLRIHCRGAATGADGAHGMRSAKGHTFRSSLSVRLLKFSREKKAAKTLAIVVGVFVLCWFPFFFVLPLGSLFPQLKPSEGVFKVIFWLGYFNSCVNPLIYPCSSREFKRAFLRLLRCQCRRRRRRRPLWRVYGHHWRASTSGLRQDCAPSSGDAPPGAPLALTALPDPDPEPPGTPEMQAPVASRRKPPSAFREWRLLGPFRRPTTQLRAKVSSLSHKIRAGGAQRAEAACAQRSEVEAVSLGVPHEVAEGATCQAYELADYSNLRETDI
It counts as cell membranes, HEK293, Membrane. The following applies: hek293.
For the compound `COc1cc2c3cc1Oc1cc(ccc1O)C[C@@H]1c4c(cc(OC)c(O)c4Oc4ccc(cc4)C[C@@H]3N(C)CC2)CC[N+]1(C)C.[Cl-]`, the IC50 entry is recorded as “Not Active”.

Consider `CN(Cc1ccc(C(C)(C)C)cc1)Cc1cccc2ccccc12` [BUTENAFINE], for which the IC50 entry is “Not Active”.

As for `Sc1ncnc2nc[nH]c12` [MERCAPTOPURINE ANHYDROUS], the IC50 entry is given as “Not Active”.

With `CC(C)(C)NCC(O)c1cc(Cl)c(N)c(Cl)c1` (stereo not drawn) [CLENBUTEROL], the IC50 result is reported as “Not Active”.

With `Nc1nc2c(ncn2COCCO)c(=O)[nH]1` [ACYCLOVIR], the IC50 result is “Not Active”.

As for `c1ccc2c(c1)c1cccc3ccc4cccc2c4c31` [BENZO[E]PYRENE], the IC50 entry is on record as “Not Active”.

For `O=C(O)CCCc1ccc(N(CCCl)CCCl)cc1` [CHLORAMBUCIL], the IC50 entry is on record as “Not Active”.

On to `CC(C)(Oc1ccc(Cl)cc1)C(=O)O` [CLOFIBRIC ACID], for which the IC50 result is given as “Not Active”.

In another assay the target is 5-hydroxytryptamine receptor 2B (Homo sapiens, UniProt P41595). The assay is classed as cell membranes, CHO-K1, Membrane. The note with it: cho-k1. Note: in other assays of this panel Not Active means under 50% inhibition at 10 µM.
Sequence of 5-hydroxytryptamine receptor 2B (P41595 whole entry): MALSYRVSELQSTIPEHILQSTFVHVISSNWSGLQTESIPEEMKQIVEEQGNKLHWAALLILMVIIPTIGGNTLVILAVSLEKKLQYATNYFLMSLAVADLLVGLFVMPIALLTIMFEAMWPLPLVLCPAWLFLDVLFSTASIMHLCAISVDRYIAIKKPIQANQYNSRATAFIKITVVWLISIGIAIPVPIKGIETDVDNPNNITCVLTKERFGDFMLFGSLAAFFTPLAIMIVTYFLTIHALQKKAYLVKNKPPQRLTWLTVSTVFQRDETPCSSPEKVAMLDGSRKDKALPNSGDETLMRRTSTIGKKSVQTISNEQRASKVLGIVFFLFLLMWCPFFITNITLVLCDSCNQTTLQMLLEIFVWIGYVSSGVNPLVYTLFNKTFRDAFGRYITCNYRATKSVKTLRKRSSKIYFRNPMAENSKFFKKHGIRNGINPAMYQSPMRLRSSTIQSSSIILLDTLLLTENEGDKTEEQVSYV
Regarding `COc1cc2c3cc1Oc1cc(ccc1O)C[C@@H]1c4c(cc(OC)c(O)c4Oc4ccc(cc4)C[C@@H]3N(C)CC2)CC[N+]1(C)C.[Cl-]`, the IC50 result is listed as “Not Active”.

As for `CN(Cc1ccc(C(C)(C)C)cc1)Cc1cccc2ccccc12` [BUTENAFINE], the IC50 entry is recorded as “Not Active”.

Consider `Sc1ncnc2nc[nH]c12` [MERCAPTOPURINE ANHYDROUS], for which the IC50 entry is given as “Not Active”.

Turning to `CC(C)(C)NCC(O)c1cc(Cl)c(N)c(Cl)c1` (stereo not drawn) [CLENBUTEROL], the IC50 entry is “Not Active”.

Regarding `Nc1nc2c(ncn2COCCO)c(=O)[nH]1` [ACYCLOVIR], the IC50 entry is given as “Not Active”.

Regarding `c1ccc2c(c1)c1cccc3ccc4cccc2c4c31` [BENZO[E]PYRENE], the IC50 result is given as “Not Active”.

Take `O=C(O)CCCc1ccc(N(CCCl)CCCl)cc1` [CHLORAMBUCIL]: the IC50 entry is recorded as “Not Active”.

Consider `CC(C)(Oc1ccc(Cl)cc1)C(=O)O` [CLOFIBRIC ACID], for which the IC50 entry was “Not Active”.

In another assay the target is Melanocortin receptor 4 (Homo sapiens, UniProt P32245). The assay is classed as cell membranes, HEK293, Membrane. The following applies: hek293. Note: in other assays of this panel Not Active means under 50% inhibition at 10 µM.
Sequence of Melanocortin receptor 4 (P32245 whole entry): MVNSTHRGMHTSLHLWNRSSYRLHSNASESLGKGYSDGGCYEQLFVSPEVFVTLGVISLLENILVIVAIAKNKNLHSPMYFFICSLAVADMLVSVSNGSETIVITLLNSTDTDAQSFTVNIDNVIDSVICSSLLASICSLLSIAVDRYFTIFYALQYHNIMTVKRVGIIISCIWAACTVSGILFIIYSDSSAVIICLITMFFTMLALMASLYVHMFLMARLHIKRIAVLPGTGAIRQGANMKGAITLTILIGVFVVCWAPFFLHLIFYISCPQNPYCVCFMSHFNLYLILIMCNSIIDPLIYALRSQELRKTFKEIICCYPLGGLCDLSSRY
With `COc1cc2c3cc1Oc1cc(ccc1O)C[C@@H]1c4c(cc(OC)c(O)c4Oc4ccc(cc4)C[C@@H]3N(C)CC2)CC[N+]1(C)C.[Cl-]`, the IC50 result was “Not Active”.

Take `CN(Cc1ccc(C(C)(C)C)cc1)Cc1cccc2ccccc12` [BUTENAFINE]: the IC50 entry is recorded as “Not Active”.

Turning to `Sc1ncnc2nc[nH]c12` [MERCAPTOPURINE ANHYDROUS], the IC50 entry is “Not Active”.

Turning to `CC(C)(C)NCC(O)c1cc(Cl)c(N)c(Cl)c1` (stereo not drawn) [CLENBUTEROL], the IC50 result was “Not Active”.

Turning to `Nc1nc2c(ncn2COCCO)c(=O)[nH]1` [ACYCLOVIR], the IC50 entry is “Not Active”.

Regarding `c1ccc2c(c1)c1cccc3ccc4cccc2c4c31` [BENZO[E]PYRENE], the IC50 result was “Not Active”.

Turning to `O=C(O)CCCc1ccc(N(CCCl)CCCl)cc1` [CHLORAMBUCIL], the IC50 result was “Not Active”.

Regarding `Cc1ccc(N(CC2=NCCN2)c2cccc(O)c2)cc1` [PHENTOLAMINE], the IC50 entry is recorded as “Not Active”.

For the compound `CC(C)(Oc1ccc(Cl)cc1)C(=O)O` [CLOFIBRIC ACID], the IC50 result was “Not Active”.

System in another assay: not listed separately
Put plainly: DRUGMATRIX: Sodium/nucleoside co-transporter radioligand binding (ligand: nitrobenzylthioinosine). The note with it: Not Active = under 50% inhibition at 10 µM. The assay is classed as cell membranes, Cavia porcellus, Dunkin-Hartley, Cerebral cortex, Membrane.
Consider `COc1cc2c3cc1Oc1cc(ccc1O)C[C@@H]1c4c(cc(OC)c(O)c4Oc4ccc(cc4)C[C@@H]3N(C)CC2)CC[N+]1(C)C.[Cl-]`, for which the IC50 result is on record as “Not Active” and the Ki result is given as “Not Active”.

Take `CN(Cc1ccc(C(C)(C)C)cc1)Cc1cccc2ccccc12` [BUTENAFINE]: the IC50 result is given as “Not Active” and the Ki entry is reported as “Not Active”.

Turning to `Sc1ncnc2nc[nH]c12` [MERCAPTOPURINE ANHYDROUS], the IC50 result is “Not Active” and the Ki result is recorded as “Not Active”.

As to `CC(C)(C)NCC(O)c1cc(Cl)c(N)c(Cl)c1` (stereo not drawn) [CLENBUTEROL], the IC50 entry is recorded as “Not Active” and the Ki entry is “Not Active”.

For the compound `Nc1nc2c(ncn2COCCO)c(=O)[nH]1` [ACYCLOVIR], the IC50 result is on record as “Not Active” and the Ki result is “Not Active”.

On to `c1ccc2c(c1)c1cccc3ccc4cccc2c4c31` [BENZO[E]PYRENE], for which the IC50 result was “Not Active” and the Ki result is reported as “Not Active”.

Turning to `O=C(O)CCCc1ccc(N(CCCl)CCCl)cc1` [CHLORAMBUCIL], the IC50 entry is recorded as “Not Active” and the Ki entry is on record as “Not Active”.

As for `Cc1ccc(N(CC2=NCCN2)c2cccc(O)c2)cc1` [PHENTOLAMINE], the IC50 result is “Not Active” and the Ki entry is listed as “Not Active”.

Consider `CC(C)(Oc1ccc(Cl)cc1)C(=O)O` [CLOFIBRIC ACID], for which the IC50 entry is given as “Not Active” and the Ki result is recorded as “Not Active”.
